Values after ≈ are worked out from the molar mass of the structure shown.
Experiments:
[1] = test system: E. faecalis ATCC 29212; experiment: antibacterial microdilution screening; assay type: cell-based, Enterococcus faecalis; details: 16 hours at 35° C., Mueller-Hinton broth
Experimental: (§1) Based on the NCCLS documents M7-A4, Vol. 17 No. 2, M27-A, Vol 17 No. 9 and M38-P, Vol 18 No. 13, a microdilution method for conducting the antibacterial and antifungal screenings was developed using a Bioscreen C Analyser (Labsystems, Finland), which is an automated reader-incubator. It measures growth continuously by vertical photometry (optical density), processes the data and provides a print-out of the results. For the bacteria we selected as primary target: Staphylococcus aureus ATCC29213, Enterococcus faecalisATCC 29212, Escherichia coli ATCC 25922 and Pseudomonas aeruginosa ATCC 27853. Candida albicans ATCC 24433 and Cryptococcus neoformans ATCC 90112 were selected as yeast targets. The dermatophyte Trichophyton mentagrophytes ATCC 9533 and the invasive mould Aspergillus fumigatus ATCC 2895 were selected as moulds. All parameters necessary for optimal incubation can be programmed in the Biolink-software (Labsystems, Finland). Incubation for all bacterial screenings was 16 hours at 35° C. The incubation parameters for the screenings against Candida and Cryptococcus were respectively 24 and 48 hours at 35° C., the invasive fungus Aspergillus fumigatus was incubated for 3 days at 30° C. and the dermatophyte T. mentagrophytes was incubated for 5 days at 30° C. As growth media for the bacteria cation adjusted Mueller-Hinton broth (Oxoid, Belgium) was used. A synthetic medium is recommended for fungal susceptibility tests: RPMI 1640, with glutamine, and without bicarbonate and with a pH indicator (Oxoid), supplemented with 1% glucose.25 μl of a 10-fold compound concentration is pipetted into each well. To each 25 μl test compound 225 μl of growth media was added. As measurement tool for the antibacterial and anti-yeast screenings, the area under the growth curve is used, which is automatically determined via the Biolink software. For the screenings against the pathogenic moulds we used endpoint OD-measurement. For internal quality control, reference antibiotics for each micro-organism are incorporated in the set-up of the tests.

[2] = test system: A. fumigatus ATCC 2895; experiment: antifungal microdilution screening; assay type: cell-based, Aspergillus fumigatus; details: 3 days at 30° C., RPMI 1640
Experimental: as §1

[3] = test system: HSV-1 (KOS); assay type: cell-based, herpes simplex virus; details: HSV-induced cytopathicity, human embryo fibroblast E6SM cell cultures
[4] = test system: C. neoformans ATCC 90112; experiment: antifungal microdilution screening; assay type: cell-based, Cryptococcus neoformans; details: 48 hours at 35° C., RPMI 1640
Experimental: as §1

[5] = test system: C. albicans ATCC 24433; experiment: antifungal microdilution screening; assay type: cell-based, Candida albicans; details: 24 hours at 35° C., RPMI 1640
Experimental: as §1

[6] = test system: BVDV strain Pe515; experiment: anti-BVDV activity in MDBK cells (MTS method); assay type: cell-based, bovine viral diarrhea virus; details: for anti-viral activity against BVDV (in words): second set of screenings
Experimental: (§2) The compounds were also screened against flaviviruses. Due to the fact that there is no adequate in vitro assay to screen against HCV, we opted to screen against the bovine viral diarrhea virus (BVDV), as it shares many similarities with the hepatitis C virus. Antiviral activity was assessed using the Pe 515 strain of BVDV on Madin Darby bovine kidney cells (MDBK cells). Both antiviral activity and cytotoxicity was determined by means of the MTS method. The EC50 is the concentration required to reduce virus induced cytopathic effect by 50%. The MTC (minimal toxic concentration) was defined as the concentration that caused >=20% reduction in cell metabolism.

[7] = test system: FM3A/0; details: murine mammary carcinoma cells, proliferation
Text: (§3) The compounds were also checked for anti-tumor activity via the proliferation of murine leukemia cells (L 1210/0), murine mammary carcinoma cells (FM3A) and human T-lymphocyte cells (Molt4/C8, CEM/0).

[8] = test system: L1210/0; details: murine leukemia cells, proliferation
Text: as §3

[9] = test system: Molt4/C8; details: human T-lymphocyte cells, proliferation
Text: as §3

[10] = test system: CEM/0; details: human T-lymphocyte cells, proliferation
Text: as §3

[11] = test system: T. mentagrophytes ATCC 9533; experiment: antifungal microdilution screening; assay type: cell-based, Trichophyton mentagrophytes; details: 5 days at 30° C., RPMI 1640
Experimental: as §1

[12] = test system: HIV-2 (ROD); assay type: cell-based, human immunodeficiency virus; details: HIV-induced cytopathicity, human lymphocyte CEM cell cultures
[13] = test system: L1210/0, FM3A/0, Molt4/C8 and CEM/0; experiment: anti-tumor screening, verdict over all tested cell-lines; assay type: cell-based
[14] = test system: HIV-1 (IIIB); experiment: HIV-1-induced cytopathicity in CEM cell cultures; assay type: cell-based, human immunodeficiency virus; details: human lymphocyte CEM cell cultures
[15] = test system: HSV-2 (G); assay type: cell-based, herpes simplex virus; details: HSV-induced cytopathicity, human embryo fibroblast E6SM cell cultures
[16] = test system: S. aureus ATCC 29213; experiment: antibacterial microdilution screening; assay type: cell-based, Staphylococcus aureus; details: 16 hours at 35° C., Mueller-Hinton broth
Experimental: as §1

[17] = test system: VV; assay type: cell-based, vaccinia virus; details: VV-induced cytopathicity, human embryo fibroblast E6SM cell cultures
[18] = test system: CMV Davis, AD-169; experiment: CMV-induced plaque formation in HEL cells; assay type: cell-based, human cytomegalo virus; details: human embryonic lung HEL cells, day 7
[19] = test system: MDBK cells; experiment: cytotoxicity in MDBK cells (MTS method); assay type: cell-based, bovine; details: minimal toxic concentration causing >=20% reduction in cell metabolism; highest concentration 100 μg/ml
Experimental: as §2

[20] = test system: P. aeruginosa ATCC 27853; experiment: antibacterial microdilution screening; assay type: cell-based, Pseudomonas aeruginosa; details: 16 hours at 35° C., Mueller-Hinton broth
Experimental: as §1

[21] = test system: E. coli ATCC 25922; experiment: antibacterial microdilution screening; assay type: cell-based, Escherichia coli; details: 16 hours at 35° C., Mueller-Hinton broth
Experimental: as §1

[22] = test system: VZV OKA; assay type: cell-based, varicella zoster virus

SMILES: CCCOC1C(Cc2ccccc2)OC2COC(c3ccccc3)OC2C1OCCC (stereo not shown) [Compound A1]
- MIC E. faecalis ATCC 29212 [1]: >25 µg/mL
- MIC A. fumigatus ATCC 2895 [2]: >25 µg/mL
- EC50 HSV-1 (KOS) (E6SM) [3]: >16 µg/mL
- MIC C. neoformans ATCC 90112 [4]: >25 µg/mL
- MIC C. albicans ATCC 24433 [5]: >25 µg/mL
- anti-viral activity against BVDV (in words) [6]: significant anti-viral activity
- IC50 FM3A/0 [7]: >200 µg/mL
- IC50 L1210/0 [8]: >200 µg/mL
- IC50 Molt4/C8 [9]: >200 µg/mL
- IC50 CEM/0 [10]: >200 µg/mL
- MIC T. mentagrophytes ATCC 9533 [11]: >25 µg/mL
- EC50 HIV-2 (ROD) (CEM) [12]: >4 µg/mL
- anti-tumor activity against all tested cell-lines (in words) [13]: No anti-tumor activity
- EC50 HIV-1 (IIIB) (CEM) [14]: >20 µg/mL
- EC50 HSV-2 (G) (E6SM) [15]: >16 µg/mL
- MIC S. aureus ATCC 29213 [16]: >25 µg/mL
- EC50 VV (E6SM) [17]: >16 µg/mL
- EC50 CMV Davis, AD-169 (HEL) [18]: >20 µg/mL
- MTC (μg/ml) MDBK [19]: >100/>100/>100 μg/ml
- MIC P. aeruginosa ATCC 27853 [20]: >25 µg/mL
- MIC E. coli ATCC 25922 [21]: >25 µg/mL

SMILES: NC(=O)c1ncn([C@@H]2O[C@H](CO)[C@@H](O)[C@H]2O)n1 [Ribavirin, reference compound]
- EC50 ([6]; Bovine viral diarrhea virus isolates and strains, strain Pe515, MDBK cells, MTS method, values separated by / are independent experiments, read-out: EC50 (μg/ml) BVDV): 40 µg/mL (≈ 164 µM)

SMILES: CC(C)OC1C(c2ccccc2)OC2COC(c3ccccc3)OC2C1OC(C)C (stereo not shown) [Compound A3]
- MIC E. faecalis ATCC 29212 [1]: >25 µg/mL
- MIC A. fumigatus ATCC 2895 [2]: >25 µg/mL
- EC50 HSV-1 (KOS) (E6SM) [3]: >8 µg/mL
- MIC C. neoformans ATCC 90112 [4]: >25 µg/mL
- MIC C. albicans ATCC 24433 [5]: >25 µg/mL
- anti-viral activity against BVDV (in words) [6]: significant anti-viral activity
- EC50 (μg/ml) BVDV ([6]; strain Pe515, MDBK cells, MTS method, values separated by / are independent experiments): < 0.8 µg/mL
- MIC T. mentagrophytes ATCC 9533 [11]: >25 µg/mL
- EC50 HIV-2 (ROD) (CEM) [12]: >4 µg/mL
- EC50 HIV-1 (IIIB) (CEM) [14]: >20 µg/mL
- EC50 HSV-2 (G) (E6SM) [15]: >8 µg/mL
- MIC S. aureus ATCC 29213 [16]: >25 µg/mL
- EC50 CMV Davis, AD-169 (HEL) [18]: >5 µg/mL
- MTC (μg/ml) MDBK [19]: >100 µg/mL
- MIC P. aeruginosa ATCC 27853 [20]: >25 µg/mL
- EC50 VZV (HEL) OKA ([22]; VZV-induced plaque formation, human embryonic lung HEL cell cultures, OKA strain): 1.1 µg/mL (≈ 2.67 µM)
- activity against VZV (in words) ([22]; first set of screenings): showed activity against VZV
- MIC E. coli ATCC 25922 [21]: >25 µg/mL

SMILES: CCCCOC1C(Cc2ccccc2)OC2COC(c3ccccc3)OC2C1OCCCC (stereo not shown) [Compound A2]
- MIC E. faecalis ATCC 29212 [1]: >25 µg/mL
- MIC A. fumigatus ATCC 2895 [2]: >25 µg/mL
- EC50 HSV-1 (KOS) (E6SM) [3]: >16 µg/mL
- MIC C. neoformans ATCC 90112 [4]: >25 µg/mL
- MIC C. albicans ATCC 24433 [5]: >25 µg/mL
- anti-viral activity against BVDV (in words) [6]: moderate activity
- IC50 FM3A/0 [7]: 22 ± 0 µg/mL (≈ 48.4 µM)
- IC50 L1210/0 [8]: 82 ± 7 µg/mL (≈ 180 µM)
- IC50 Molt4/C8 [9]: 19 ± 1 µg/mL (≈ 41.8 µM)
- IC50 CEM/0 [10]: 27 ± 2 µg/mL (≈ 59.4 µM)
- MIC T. mentagrophytes ATCC 9533 [11]: >25 µg/mL
- EC50 HIV-2 (ROD) (CEM) [12]: >20 µg/mL
- anti-tumor activity against all tested cell-lines (in words) [13]: moderate anti-tumor activity
- EC50 HIV-1 (IIIB) (CEM) [14]: >20 µg/mL
- EC50 HSV-2 (G) (E6SM) [15]: >16 µg/mL
- MIC S. aureus ATCC 29213 [16]: >25 µg/mL
- EC50 VV (E6SM) [17]: >16 µg/mL
- EC50 CMV Davis, AD-169 (HEL) [18]: >20 µg/mL
- MTC (μg/ml) MDBK [19]: >100/>100/>100 μg/ml
- MIC P. aeruginosa ATCC 27853 [20]: >25 µg/mL
- MIC E. coli ATCC 25922 [21]: >25 µg/mL

Reference: US7125853B2, “Bicyclic carbohydrate compounds useful in the treatment of infections caused by Flaviviridae sp., such as hepatitis C and bovine viral diarrhea viruses” (Kemin Pharma B.V.B.A., priority 2003, dated 2006)
